This note sets out measurements from patent publication US6384058B1, “2,4,6-trisubstituted pryridines with estrogenic activity and methods for the solid phase synthesis thereof” (American Home Products Corporation, priority 1997, dated 2002).

Data set [1] addresses T1, human estrogen receptor (Homo sapiens, UniProt P03372).
T1 construct: expressed in transfected cells; host or cells: Chinese Hamster Ovary (CHO) cells, stably transfected
T1 sequence (P03372 1-595): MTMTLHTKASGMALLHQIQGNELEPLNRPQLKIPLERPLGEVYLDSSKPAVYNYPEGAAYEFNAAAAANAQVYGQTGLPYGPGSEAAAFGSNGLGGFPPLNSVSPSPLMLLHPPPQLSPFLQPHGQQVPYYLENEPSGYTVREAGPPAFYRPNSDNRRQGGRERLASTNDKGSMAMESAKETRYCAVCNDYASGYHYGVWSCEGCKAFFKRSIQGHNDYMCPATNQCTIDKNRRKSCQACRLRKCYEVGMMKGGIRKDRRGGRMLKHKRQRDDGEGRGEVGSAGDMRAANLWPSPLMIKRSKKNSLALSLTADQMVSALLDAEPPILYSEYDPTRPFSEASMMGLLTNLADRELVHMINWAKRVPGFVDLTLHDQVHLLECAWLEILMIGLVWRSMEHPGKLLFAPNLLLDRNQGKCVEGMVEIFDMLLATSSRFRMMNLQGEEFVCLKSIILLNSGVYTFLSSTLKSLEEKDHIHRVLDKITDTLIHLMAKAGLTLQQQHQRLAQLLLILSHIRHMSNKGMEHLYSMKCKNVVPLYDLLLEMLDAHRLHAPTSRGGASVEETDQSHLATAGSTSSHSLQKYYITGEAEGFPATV
Description: Estrogen Receptor Assay: 2×VIT ERE Transfection Assay (luciferase reporter in CHO cells). Type of data set: cell-based. As to conditions: 1 μM compound alone, 24 h, CHO cells stably transfected with human estrogen receptor, luciferase normalised to B-galactosidase, n=8. Here is the method: Enhancement of luciferase gene expression in this model is dependent upon estrogen receptor (ER) interaction with a vitellogenin gene estrogen responsive element (ERE) capable of enhancing basal promoter activity. This is a sensitive and rapid methodology to assess estrogenic/antiestrogenic potency of compounds.
48 h prior to treatment the growth medium is replaced with DMEM lacking phenol red+10% dextran coated charcoal stripped FBS (treatment medium). Cells are plated at a density of 5000 cells/well in 96-well plates containing 200 μL of medium/well.
Calcium Phosphate Transfection: Reporter DNA (Promega plasmid pGL2 containing two tandem copies of the vitellogenin ERE in front of the minimal thymidine kinase promoter driving the luciferase gene) is combined with the B-galactosidase expression plasmid pCH110 (Pharmacia) and carrier DNA (pTZ18U) in the following ratio: 10 μg of reporter DNA, 5 μg of pCH110 DNA, 5 μg of pTZ18U, and 20 μg of DNA/1 mL of transfection solution. […] 20 μL of this mixture is added to each well of cells and remains on the cells for 16 h. […] Each treatment condition is performed on 8 wells (n=8) which are incubated for 24 h prior to luciferase assay.
Luciferase Assay: After 24 h exposure to compounds, the media is removed and each well is washed 2× with 125 μL of PBS lacking Mg++ and Ca++. After removing the PBS, 25 μL of Promega lysis buffer is added to each well and allowed to stand at room temperature for 15 min, followed by 15 min at −80 deg. C. and 15 min at 37 deg. C. 20 μL of lysate is tranferred to an opaque 96-well plate for luciferase activity evaluation and the remaining lysate (5 μL) is used for B-galactosidase activity evaluation (normalize transfection). The luciferan substrate (Promega) added is 100 μL aliquots to each well automatically by the luminometer and the light produced (relative light units) is read 10 seconds after addition. The data is logged and automatically sent to a JMP statistical program for analysis. A hard copy printout is also produced at the time of the assay.
B-galactosidase Assay: To the remaining 5 μL of lysate 45 μL of PBS is added. 50 μl of Promega B-galactosidase 2×assay buffer is added, mixed well and incubated at 37 deg. C. for 1 h. A plate containing a standard curve (0.1 to 1.5 milliunits in triplicate) is set up for each experimental run. The plates are analyzed on a Molecular Devices spectrophotometric plate reader at 410 nm. The optical densities for the unknowns are converted to milliunits of activity by mathematical extrapolation from the standard curve. Analysis of Results: The luciferase data is generated as relative light units (RLUs) accumulated during a 10 second measurement and is automatically transferred to a JMP (SAS Inc) file where background RLUs are subtracted. The B-galactosidase values are automatically imported into the file and these values are divided into the RLUs to normalize the data. The mean and standard deviation is determined from a n=8 for each treatment.
A general note: In a reporter assay the amount or activity of a reporter protein is the signal.

Turning to `Oc1cccc(-c2cc(-c3ccc(-c4ccccc4)cc3)cc(-c3ccc4ccccc4c3)n2)c1` [Example 9, 3-(4-Biphenyl-4-yl-6-naphthalen-2-yl-pyridin-2-yl)-phenol], the melting point – broadly, the temperature, or range, at which the solid turns liquid – lay in the range of 174 to 175 °C. For `Oc1ccccc1-c1cc(-c2ccc(F)c(F)c2)cc(-c2ccco2)n1` [Example 3, 2-[4-(3,4-Difluoro-phenyl)-6-furan-2-yl-pyridin-2-yl]-phenol], the melting point fell in the range of 147 to 148 °C. Besides, the “Estrogenic activity at 1 μM (% of activity of 1 nM 17B-estradiol)” value in data set [1] turned out to be 10%. In the same order, the values of `Oc1ccccc1-c1cc(-c2ccc3c(c2)OCO3)cc(-c2ccc3ccccc3c2)n1` [Example 4, 2-(4-Benzo[1,3]dioxol-5-yl-6-naphthalen-2-yl-pyridin-2-yl)-phenol] are 195 to 196 °C and 22%. `Oc1ccccc1-c1cc(-c2ccc3c(c2)OCO3)cc(-c2ccsc2)n1` [Example 5, 2-(4-Benzo[1,3]dioxol-5-yl-6-thiophen-3-yl-pyridin-2-yl)-phenol] showed a melting point of 120 to 121 °C. As to `Oc1cccc(-c2cc(C3CCCCC3)cc(-c3ccco3)n2)c1` [Example 10, 3-(4-Cyclohexyl-6-furan-2-yl-pyridin-2-yl)-phenol], the “Estrogenic activity at 1 μM (% of activity of 1 nM 17B-estradiol)” value in data set [1] turned out to be 36%. In the case of `Oc1ccc(F)cc1-c1cc(-c2ccc(-c3ccccc3)cc2)cc(-c2ccc3ccccc3c2)n1` [Example 6, 2-(4-Biphenyl-4-yl-6-naphthalen-2-yl-pyridin-2-yl)-4-fluoro-phenol], the melting point lay in the range of 187 to 188 °C.

Take `Oc1ccc(F)cc1-c1cc(-c2ccc(-c3ccccc3)cc2)cc(-c2ccncc2)n1` [Example 7, 2-(4-Biphenyl-4-yl-[2,4′]bipyridinyl-6-yl)-4-fluoro-phenol]: the “Estrogenic activity at 1 μM (% of activity of 1 nM 17B-estradiol)” value in data set [1] turned out to be 6%. In turn, `Oc1ccccc1-c1cc(-c2ccc(F)c(F)c2)cc(-c2ccc(Cl)cc2)n1` [Example 1, 2-[6-(4-Chloro-phenyl)-4-(3,4-difluoro-phenyl)-pyridin-2-yl]-phenol] had a melting point of 146 to 148 °C. Also, the “Estrogenic activity at 1 μM (% of activity of 1 nM 17B-estradiol)” value in data set [1] is 14%.

Consider `Oc1ccccc1-c1cc(-c2ccc(F)c(F)c2)cc(-c2ccc3ccccc3c2)n1` [Example 2, 2-[4-(3,4-Difluoro-phenyl)-6-naphthalen-2-yl-pyridin-2-yl]-phenol], for which the melting point was 165 to 167 °C.
